Measured values published in patent US8933030B2, “Treatments for gastrointestinal disorders” (Ironwwod Pharmaceuticals, Inc., priority 2010, dated 2015).
Where a SMILES comes first, the peptide text is derived from it. Bridges are numbered along the chain shown (N, C = ends).

Key:
[1] = molecular target: T1, guanylate cyclase-C (GC-C) (Homo sapiens, UniProt P25092); experiment: Competitive radioligand ([125I]-pSTa) binding assay on T84 cells; design: cell-surface GC-C receptors on human colonic epithelial (T84) cells; endogenous in cells; host or cells: T84 human colonic epithelial cells; conditions: competition with 170 pM [125I]-pSTa for cell-surface GC-C receptors on T84 cells; read-out: inhibition constant (Ki), relative binding affinity
T1 sequence (P25092 24-1073): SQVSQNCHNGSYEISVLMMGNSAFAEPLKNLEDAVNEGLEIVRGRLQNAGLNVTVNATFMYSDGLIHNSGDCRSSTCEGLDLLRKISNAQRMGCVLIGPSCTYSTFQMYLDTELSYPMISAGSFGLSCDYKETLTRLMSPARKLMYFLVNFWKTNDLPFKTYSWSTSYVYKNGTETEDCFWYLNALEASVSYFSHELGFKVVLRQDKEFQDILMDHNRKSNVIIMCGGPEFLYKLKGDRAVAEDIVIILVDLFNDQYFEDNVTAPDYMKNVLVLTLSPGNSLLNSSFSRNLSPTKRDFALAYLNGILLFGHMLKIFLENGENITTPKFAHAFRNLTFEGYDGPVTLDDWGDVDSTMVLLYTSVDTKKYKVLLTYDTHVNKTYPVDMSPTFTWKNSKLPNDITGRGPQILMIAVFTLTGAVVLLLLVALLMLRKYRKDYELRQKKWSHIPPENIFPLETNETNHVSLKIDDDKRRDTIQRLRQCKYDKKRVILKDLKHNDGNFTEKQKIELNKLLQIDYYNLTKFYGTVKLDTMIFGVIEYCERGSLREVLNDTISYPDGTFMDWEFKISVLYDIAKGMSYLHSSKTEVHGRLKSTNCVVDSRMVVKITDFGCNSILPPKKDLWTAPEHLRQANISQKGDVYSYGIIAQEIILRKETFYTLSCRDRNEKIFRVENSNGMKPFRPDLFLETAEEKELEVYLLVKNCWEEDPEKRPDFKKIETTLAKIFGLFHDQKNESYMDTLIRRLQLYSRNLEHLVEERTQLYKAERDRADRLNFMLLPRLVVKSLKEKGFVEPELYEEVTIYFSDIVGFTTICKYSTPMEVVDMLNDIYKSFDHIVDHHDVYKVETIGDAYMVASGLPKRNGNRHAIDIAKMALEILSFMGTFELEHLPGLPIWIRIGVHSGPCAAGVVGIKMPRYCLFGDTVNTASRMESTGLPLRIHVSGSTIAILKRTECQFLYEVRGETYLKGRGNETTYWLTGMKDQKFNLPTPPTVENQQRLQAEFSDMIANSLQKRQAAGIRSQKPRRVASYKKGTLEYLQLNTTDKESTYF
Method: The relative binding affinities of linaclotide and Cys1-IMD to the guanylate cyclase-C receptor (GC-C) were determined using a competitive-binding assay in which the peptides competed with a known GC-C agonist, porcine-derived heat-stable enterotoxin (pSTa), for binding sites on cell-surface GC-C receptors on human colonic epithelial (T84) cells. The pSTa was radiolabeled with ^125I to enable measurement of its receptor binding. The competitive-binding assay was performed by adding various concentrations of each peptide (0.1 to 3,000 nM) to 0.20 mL reaction mixtures containing Dulbecco's modified Eagle's medium (DMEM), 0.5% bovine serum albumin (BSA), 2.0×10^5 T84 cells, and 170 pM [^125I]-pSTa (200,000 cpm). The data were used to construct competitive radioligand-binding curves and determine the relative binding affinities of linaclotide and Cys1-IMD, as measured by their IC50 and Ki values.

[2] = after oral administration at therapeutic dose levels; cited from earlier work
[3] = molecular target: T1, guanylate cyclase-C (GC-C); experiment: cGMP response in T84 cells (GC-C agonist activity); format: cell-based; design: tested for guanylate cyclase-C (GC-C) agonist activity in T84 cells; endogenous in cells; host or cells: T84 cells
Method: Linaclotide and Cys1-IMD were tested for guanylate cyclase-C (GC-C) agonist activity in T84 cells as follows. In each well of a 96-well plate, approximately 200,000 T84 cells/well was first incubated with 1 mM 3-isobutyl-1-methylxanthine (IBMX) in 0.18 mL of Dulbecco's modified Eagle's medium (DMEM) for 10 minutes at 37° C. Each peptide was diluted to final concentrations ranging from 0.1 to 10,000 nM, and 0.02 mL of each dilution was added in duplicate to a 96-well plate containing the T84 cells, for a final volume of 0.20 mL per well. The peptide reactions were incubated for 30 min at 37° C. Following the incubation, the supernatants were removed and discarded and the cells were lysed with cold 0.1 M hydrochloric acid (HCl) for 30 min on ice. The cell debris was removed by centrifugation and the concentration of guanosine 3′,5′-cyclic monophosphate (cyclic GMP) in each lysate was determined using liquid chromatography with tandem mass spectrometry. The data were used to construct dose-response curves and calculate half-maximal effective concentration (EC50) values for each test article.

**Q.** Which Ki [1] does the source give for C[C@@H]1NC(=O)[C@@H]2CCCN2C(=O)[C@H](CC(N)=O)NC(=O)[C@@H]2CSSC[C@H](N)C(=O)N[C@H]3CSSC[C@H](NC1=O)C(=O)N[C@@H]([C@@H](C)O)C(=O)NCC(=O)N[C@H](C(=O)N[C@@H](Cc1ccc(O)cc1)C(=O)O)CSSC[C@H](NC(=O)[C@H](Cc1ccc(O)cc1)NC(=O)[C@H](CCC(=O)O)NC3=O)C(=O)N2 [Linaclotide, Cys Cys Glu Tyr Cys Cys Asn Pro Ala Cys Thr Gly Cys Tyr] (H-CCEYCCNPACTGCY-OH; disulfide 1-6, 2-10, 5-13 (inferred); N-terminus and C-terminus assumed) here?
**A.** 0.0039 ± 0.0016 µM

**Q.** What about the “levels of linaclotide seen systemically” value [2] of the same compound?
**A.** no detectable levels

**Q.** And the EC50 [3]?
**A.** 0.315 ± 0.105 µM
